Reference: the supplement of paper PMC10307832

Experiments:
Experiment in all cases: relative viability (nuclei count vs DMSO), 5 days (fraction); higher = more cells survive
Vandetanib + Lapatinib = compound: COc1cc2/c(=N/c3ccc(Br)cc3F)nc[nH]c2cc1OCC1CCN(C)CC1 [Vandetanib] + CS(=O)(=O)CCNCc1ccc(-c2ccc3ncnc(Nc4ccc(OCc5cccc(F)c5)c(Cl)c4)c3c2)o1 [Lapatinib] (partner 2 µM)
Outline: (§1)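 Relative viability divides the nuclei count in treated wells by that in vehicle wells. Lung cancer cell lines were seeded in 1536-well plates, dosed by pin tool the next day, and fixed and stained after 5 days in one step with final 0.05% Triton X-100, 1% formaldehyde and 1 ug/ml Hoechst. Dosing was a single drug or a fixed anchor-drug dose plus five library-drug doses (not always all listed) in √10 steps, and values are medians of duplicate plates imaged at 4×.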

NVP-TAE684 + Decitabine = compound: COc1cc(N2CCC(N3CCN(C)CC3)CC2)ccc1Nc1ncc(Cl)c(Nc2ccccc2S(=O)(=O)C(C)C)n1 [NVP-TAE684] + Nc1ncn([C@H]2C[C@H](O)[C@@H](CO)O2)c(=O)n1 [Decitabine] (partner 2 µM)
Outline: as §1

NVP-TAE684 + Pemetrexed = compound: COc1cc(N2CCC(N3CCN(C)CC3)CC2)ccc1Nc1ncc(Cl)c(Nc2ccccc2S(=O)(=O)C(C)C)n1 [NVP-TAE684] + Nc1nc2[nH]cc(CCc3ccc(C(=O)N[C@@H](CCC(=O)O)C(=O)O)cc3)c2c(=O)[nH]1 [Pemetrexed] (partner 0.2 µM)
Outline: as §1

NVP-TAE684 + Foretinib = compound: COc1cc(N2CCC(N3CCN(C)CC3)CC2)ccc1Nc1ncc(Cl)c(Nc2ccccc2S(=O)(=O)C(C)C)n1 [NVP-TAE684] + COc1cc2c(Oc3ccc(NC(=O)C4(C(=O)Nc5ccc(F)cc5)CC4)cc3F)ccnc2cc1OCCCN1CCOCC1 [Foretinib] (partner 0.25 µM)
Outline: as §1

CUDC-101 + Crizotinib = compound: C#Cc1cccc(Nc2ncnc3cc(OC)c(OCCCCCCC(=O)NO)cc23)c1 [CUDC-101] + C[C@@H](Oc1cc(-c2cnn(C3CCNCC3)c2)cnc1N)c1c(Cl)ccc(F)c1Cl [Crizotinib] (partner 1 µM)
Outline: as §1

| Cell Line | relative viability (Vandetanib + Lapatinib; first compound 0.02 µM) | relative viability (Vandetanib + Lapatinib; first compound 0.06325 µM) | relative viability (Vandetanib + Lapatinib; first compound 0.2 µM) | relative viability (Vandetanib + Lapatinib; first compound 0.6325 µM) | relative viability (Vandetanib + Lapatinib; first compound 2 µM) | relative viability (NVP-TAE684 + Decitabine; first compound 0.2 µM) | relative viability (NVP-TAE684 + Decitabine; first compound 0.6325 µM) | relative viability (NVP-TAE684 + Decitabine; first compound 2 µM) | relative viability (NVP-TAE684 + Pemetrexed; first compound 0.2 µM) | relative viability (NVP-TAE684 + Pemetrexed; first compound 0.6325 µM) | relative viability (NVP-TAE684 + Pemetrexed; first compound 2 µM) | relative viability (NVP-TAE684 + Foretinib; first compound 0.2 µM) | relative viability (NVP-TAE684 + Foretinib; first compound 0.6325 µM) | relative viability (NVP-TAE684 + Foretinib; first compound 2 µM) | relative viability (CUDC-101 + Crizotinib; first compound 0.01 µM) | relative viability (CUDC-101 + Crizotinib; first compound 0.03162 µM) | relative viability (CUDC-101 + Crizotinib; first compound 0.1 µM) | relative viability (CUDC-101 + Crizotinib; first compound 0.3162 µM) | relative viability (CUDC-101 + Crizotinib; first compound 1 µM) |
| --- | --- | --- | --- | --- | --- | --- | --- | --- | --- | --- | --- | --- | --- | --- | --- | --- | --- | --- | --- |
| NCI-H661 | 0.547 | 0.532 | 0.555 | 0.607 | 0.365 | 0.584 | 0.495 | 0.508 | 0.959 | 0.924 | 0.894 | 1.19 | 1.05 | 0.779 | 1.07 | 1.08 | 0.954 | 1.03 | 0.943 |
| NCI-H596 | 1.1 | 0.912 | 1.11 | 1.1 | 0.947 | 1 | 1.08 | 0.989 | 0.56 | 0.43 | 0.45 | 0.932 | 0.734 | 0.649 | 0.675 | 1 | 1.01 | 0.979 | 0.536 |
| PC-3 [JPC-3] | 0.442 | 0.482 | 0.49 | 0.458 | 0.41 | 0.846 | 0.73 | 0.75 | 1.16 | 1.08 | 0.903 | 1.2 | 0.99 | 0.793 | 0.983 | 0.97 | 0.82 | 0.82 | 0.278 |
| NCI-H1993 | 0.728 | 0.801 | 0.663 | 0.923 | 0.786 | 0.618 | 0.629 | 0.501 | 0.518 | 0.555 | 0.436 | 0.766 | 0.746 | 0.553 | 0.93 | 0.783 | 0.766 | 0.754 | 0.77 |
| NCI-H1355 | 0.984 | 0.926 | 0.963 | 1.05 | 0.924 | 0.372 | 0.383 | 0.31 | 1.01 | 0.984 | 0.793 | 0.9 | 0.989 | 0.428 | 1.06 | 1.02 | 1.15 | 1.07 | 0.906 |
| NCI-H23 | 1.07 | 0.971 | 0.969 | 1.28 | 0.962 | 0.31 | 0.322 | 0.241 | 0.719 | 0.556 | 0.395 | 1.03 | 0.769 | 0.356 | 0.68 | 0.442 | 0.639 | 0.547 | 0.495 |
| NCI-H1755 | 1.06 | 0.978 | 0.983 | 1.02 | 1.01 | 0.715 | 0.756 | 0.667 | 0.394 | 0.583 | 0.384 | 1.03 | 0.897 | 0.761 | 0.81 | 0.896 | 0.828 | 0.942 | 0.743 |
| SK-LU-1 | 0.859 | 0.676 | 0.992 | 0.832 | 0.816 | 0.58 | 0.658 | 0.602 | 0.826 | 1 | 0.575 | 0.947 | 0.766 | 0.469 | 1.13 | 1.03 | 0.795 | 0.77 | 0.579 |
